Data taken from the Deep4Chem optical property database.
Several values for one entry are separate records, joined by “and”; a condition that tells them apart may be missing. Identical values can stand only once. Values belong to the compound of their own block, whether it stands above or below them.

Assay: solvent given as SMILES
[1] = in O=P(c1ccccc1)(c1ccccc1)c1ccccc1Oc1ccccc1P(=O)(c1ccccc1)c1ccccc1

Compound: CCCCN(c1ccccc1)c1ccc2c(c1)C(CC)(CC)c1cc(/C=C/c3ccc(/C=C(\C#N)C(=O)O)s3)ccc1-2
- emission maximum (in C1CCOC1): 622 nm
- emission maximum (in C1COCCO1): 621 nm
- emission maximum (in CC#N): 518 nm
- emission maximum (in CC(C)=O): 576 nm
- emission maximum (in CCOC(C)=O): 590 nm
- emission maximum (in CN(C)C=O): 605 nm
- emission maximum (in CS(C)=O): 520 nm
- emission maximum (in ClCCl): 595 nm

- emission maximum (in CC#N): 439 nm
- emission maximum (in ClCCl): 444 nm
Compound: O=c1c2cc(Cl)ccc2nc2n1[B-](F)(F)[n+]1ccccc1-2

- emission maximum (in C1CCOC1): 371 nm
Compound: O=Cc1ccc(-c2ccc3c(c2)C(=O)c2cc(-c4ccc(C=O)cc4)ccc2-3)cc1

Compound: F[B-]1(F)OC(c2ccc(C(F)(F)F)cc2)=Cc2cc(Cl)nc[n+]21
- emission maximum (in C1CCOC1): 428 nm
- emission maximum (in CC#N): 425 nm
- emission maximum (in CCCCCC): 421 nm
- emission maximum (in Cc1ccccc1): 434 nm
- emission maximum (in ClC(Cl)Cl): 426 nm
- emission maximum (in ClCCl): 426 nm

Compound: CCCCCCCCCCCCn1cccc1/C=C/c1ccc(/C=C/c2cccn2CCCCCCCCCCCC)cc1
- emission maximum (in Cc1ccccc1): 443 nm

- emission maximum (in CC#N): 386 nm
- emission maximum (in CCCCOCCCC): 385 nm
- emission maximum (in CO): 383 nm
Compound: CC(=O)Nc1ccc2ccc3cccc4ccc1c2c34

Compound: Cc1ccc(N(c2ccc(C)cc2)c2ccc3c(c2)c2cc(N(c4ccc(C)cc4)c4ccc(C)cc4)ccc2n3-c2ccc(-c3nc4cccc5c4n3-c3ccccc3C5(C)C)cc2)cc1
- emission maximum (in Cc1ccccc1): 496 nm
- emission maximum [1]: 491 nm

- emission maximum (in ClCCl): 442 nm
Compound: F[B-]1(F)Oc2ccccc2-c2c3c(c4c([n+]21)CCc1ccccc1-4)CCc1ccccc1-3

Compound: c1ccc(-c2nc(-c3ccccc3)nc(-c3ccc(-n4c5ccccc5c5c6oc7ccccc7c6ccc54)cc3)n2)cc1
- emission maximum (in C1CCCCC1): 393.5 nm
- emission maximum (in C1CCOC1): 473.68 nm
- emission maximum (in Cc1ccccc1): 430.34 nm
- emission maximum [1]: 429.14 nm

- emission maximum (in C1CCCCC1): 329 nm
- emission maximum (in CC#N): 340 nm
- emission maximum (in CO): 345 nm
- emission maximum (in O): 350 nm
Compound: CCOC(=O)COc1ccc(C(c2c(C)[nH]c3ccccc23)c2c(C)[nH]c3ccccc23)cc1OC

Compound: CC(=O)[B-]1(C(C)=O)OC(c2ccccc2)=CC(c2ccc3ccccc3c2)=[O+]1
- emission maximum (in CC#N): 510 nm
- emission maximum (in ClC(Cl)(Cl)Cl): 419 nm

- emission maximum (in C1CCOC1): 448 nm
- emission maximum (in CC#N): 485 nm
- emission maximum (in CCCCCC): 415 nm
- emission maximum (in CCO): 521 nm
- emission maximum (in CCOC(C)=O): 450 nm
- emission maximum (in CS(C)=O): 494 nm
- emission maximum (in ClCCl): 469 nm
- emission maximum (in O): 504 nm
Compound: CCCCCCCCCCCCOc1cc2cc(N(C)C)ccc2cc1C=O

Compound: Cc1ccc(N(c2ccc(C)cc2)c2ccc3c4cccc5c(N(c6ccc(C)cc6)c6ccc(C)cc6)ccc(c6cccc2c63)c54)cc1
- emission maximum (in C1CCCCC1): 546 nm
- emission maximum (in C1CCOC1): 551 nm
- emission maximum (in CC#N): 574 nm
- emission maximum (in Cc1ccccc1): 548 nm
- emission maximum (in ClCCl): 568 nm

- emission maximum (in CCO): 425 nm
Compound: COc1cc2c(cc1F)c(=O)c1cc(F)c(OC)cc1n2C(C)C

- emission maximum (in ClCCl): 588 nm
Compound: F[B-]1(F)n2c(c3c(c2-c2ccccc2)C2C=CC3CC2)C(c2ccccc2)=C2C3=C(C(c4ccccc4)=[N+]21)C1C=CC3CC1 (stereo unspecified)

- emission maximum (in C1CCCCC1): 327 nm
- emission maximum (in CC#N): 340 nm
- emission maximum (in CO): 344 nm
- emission maximum (in O): 350 nm
Compound: CCOC(=O)COc1ccc(C(c2c(C)[nH]c3ccccc23)c2c(C)[nH]c3ccccc23)cc1

- emission maximum (in CC#N): 408 nm
Compound: Cc1c2ccc3c(C)[n+](C)ccc3c2cc[n+]1C

- emission maximum (in ClCCl): 430 nm
Compound: O=C1c2cc3ccccc3cc2C2=Nc3ccc4ccccc4[n+]3[B-](F)(F)N12

- emission maximum (in ClC(Cl)Cl): 676 nm
Compound: CN1C(=CC2=C([S-])C(=Cc3sc4ccccc4[n+]3C)C2=O)C(C)(C)c2ccccc21

- emission maximum (in ClCCl): 702 nm
Compound: CC(C)c1cccc(C(C)C)c1N1C(=O)c2ccc3c(-c4ccccc4)c4c5ccc6c7c(ccc(c(-c8ccccc8)c4c4ccc(c2c34)C1=O)c75)C(=O)N(c1c(C(C)C)cccc1C(C)C)C6=O

- emission maximum (in ClCCl): 333 nm
Compound: COc1ccc(-c2cc(-c3ccccc3)nn2C)cc1

Compound: CCn1c2cc(OC)ccc2c2c3nsnc3c3c4ccc(OC)cc4n(CC)c3c21
- emission maximum (in CN(C)C=O): 557 nm
- emission maximum (in Cc1ccccc1): 517 nm
- emission maximum (in ClCCl): 553 nm

Compound: CCCCCCCCCCCCn1cccc1/C=C/c1cc(OCCCC)c(/C=C/c2cccn2CCCCCCCCCCCC)cc1OCCCC
- emission maximum (in Cc1ccccc1): 472 nm

- emission maximum (in CC#N): 346 nm
- emission maximum (in CO): 348 nm
Compound: CN1c2ccccc2CCc2ccccc21

- emission maximum (in ClC(Cl)Cl): 409 nm
Compound: COc1ccc2cc(-c3ccccc3CC#N)c(=O)oc2c1

- emission maximum (in CC#N): 553 nm
Compound: COc1ccc(-c2nc(/C(C#N)=C/c3ccc(Cl)cc3)sc2-c2ccc(OC)cc2)cc1

Compound: CC1=CC(C)=[N+]2C1=C(c1ccc(N(C)C)cc1)c1c(C)cc(C)n1[B-]2(F)F
- emission maximum (in C1CCOC1): 513 nm
- emission maximum (in CC#N): 508 nm
- emission maximum (in CC(=O)C(C)(C)C): 511 nm
- emission maximum (in CC(C)=O): 510 nm
- emission maximum (in CCCCCC): 511 nm
- emission maximum (in CCOC(C)=O): 510 nm
- emission maximum (in CO): 514 nm and 511 nm

- emission maximum (in C1CCOC1): 409 nm
Compound: N#Cc1ccc(N)c(/C=C/C(F)(F)F)c1

- emission maximum (in CC#N): 628 nm
- emission maximum (in CCCCCC): 623 nm
- emission maximum (in CCOC(C)=O): 628 nm
- emission maximum (in CO): 620 nm
- emission maximum (in ClCCl): 630 nm
Compound: COC1=[N+]2C(=C(c3ccccc3)c3ccc(OC)n3[B-]2(F)F)C=C1

- emission maximum (in ClCCl): 401 nm
Compound: COC(=O)c1c(-c2cc3ccccc3oc2=O)nn(-c2ccc(Br)cc2)c1C(=O)OC

- emission maximum (in O): 660 nm
Compound: Cc1ccccc1C1=C2C=CC(=[N+](C)C)C=C2[Si](C)(C)c2cc(N(C)C)ccc21

- emission maximum (in ClC(Cl)Cl): 422 nm
Compound: COc1cc(OC)c2cc(-c3ccccc3CC#N)c(=O)oc2c1

- emission maximum (in ClCCl): 418 nm
Compound: CCCc1cc2c(s1)-c1cc3c(cc1NB2c1ccccc1)-c1sc(CCC)cc1B(c1ccccc1)N3

- emission maximum (in ClCCl): 555 nm
Compound: Brc1ccc(N(c2ccc(/C=C/c3ccncn3)cc2)c2ccc(/C=C/c3ccncn3)cc2)cc1

- emission maximum (in ClC(Cl)Cl): 459 nm
Compound: FC(F)(F)c1ccc(-c2ncc3ccccn23)cc1

- emission maximum (in CC#N): 490 nm
- emission maximum (in CCCCCC): 459 nm
- emission maximum (in CO): 511 nm
- emission maximum (in c1ccccc1): 478 nm and 468 nm
Compound: O=c1oc2c(ccc3ccccc32)nc1-c1ccccc1

- emission maximum (in ClCCl): 857 nm
Compound: CCN(CC)c1ccc2c(-c3ccccc3C(=O)O)c3c([o+]c2c1)/C(=C/C=C/c1ccc(N(C)C)cc1)CCC3

- emission maximum (in CO): 588 nm
- emission maximum (in O): 620 nm
- emission maximum (in OCCO): 594 nm
- emission maximum (in [2H]O[2H]): 620 nm
Compound: O=C(O)C1=CC(=C/C=[N+]2/c3cc(O)c(C[C@@H]4O[C@H](CO)[C@@H](O)C(O)[C@H]4O)cc3C[C@H]2C(=O)O)C=C(C(=O)O)N1 (stereo partly specified)

- emission maximum (in C1COCCO1): 495 nm
Compound: COC(=O)c1ccc(/C=C2\C=C(c3ccccc3)OC2=O)cc1

- emission maximum (in ClCCl): 472 nm
Compound: N#Cc1cc(/C=C/c2ccc(N(c3ccccc3)c3ccccc3)cc2)ccc1-c1ccc(/C=C/c2ccc(N(c3ccccc3)c3ccccc3)cc2)cc1C#N

Compound: CCCCCCC1(CCCCCC)c2cc(-c3nc(-c4ccc5c(c4)C(CCCCCC)(CCCCCC)c4cc(N6c7ccccc7Sc7ccccc76)ccc4-5)nc(-c4ccc5c(c4)C(CCCCCC)(CCCCCC)c4cc(N6c7ccccc7Sc7ccccc76)ccc4-5)n3)ccc2-c2ccc(N3c4ccccc4Sc4ccccc43)cc21
- emission maximum (in C1CCOC1): 626 nm
- emission maximum (in CCCCCC): 462 nm
- emission maximum (in Cc1ccccc1): 529 nm
- emission maximum (in ClCCl): 650 nm

- emission maximum (in C1CCOC1): 465 nm
Compound: Cc1cc(C2=C(c3cc(C)sc3C)S(=O)(=O)c3ccccc32)c(C)s1
